Reference: US20060281787A1, “Bisindolyl maleimides useful for treating prostate cancer and akt-mediated diseases” (priority 2003, published 2006)
pEC50: −log10 of the molar value.

Experiments:
recombinant PDK-1 = molecular target: T1, recombinant PDK-1 (Homo sapiens, UniProt O15530); experiment: PDK-1 kinase activity assay (PDK-tide phosphorylation, phosphocellulose filter plates); assay type: biochemical; conditions: at Km for ATP and PDKtide saturation; read-out: inhibits PDK-1, EC50
T1 construct: purchased UBI
T1 sequence (O15530 1-556): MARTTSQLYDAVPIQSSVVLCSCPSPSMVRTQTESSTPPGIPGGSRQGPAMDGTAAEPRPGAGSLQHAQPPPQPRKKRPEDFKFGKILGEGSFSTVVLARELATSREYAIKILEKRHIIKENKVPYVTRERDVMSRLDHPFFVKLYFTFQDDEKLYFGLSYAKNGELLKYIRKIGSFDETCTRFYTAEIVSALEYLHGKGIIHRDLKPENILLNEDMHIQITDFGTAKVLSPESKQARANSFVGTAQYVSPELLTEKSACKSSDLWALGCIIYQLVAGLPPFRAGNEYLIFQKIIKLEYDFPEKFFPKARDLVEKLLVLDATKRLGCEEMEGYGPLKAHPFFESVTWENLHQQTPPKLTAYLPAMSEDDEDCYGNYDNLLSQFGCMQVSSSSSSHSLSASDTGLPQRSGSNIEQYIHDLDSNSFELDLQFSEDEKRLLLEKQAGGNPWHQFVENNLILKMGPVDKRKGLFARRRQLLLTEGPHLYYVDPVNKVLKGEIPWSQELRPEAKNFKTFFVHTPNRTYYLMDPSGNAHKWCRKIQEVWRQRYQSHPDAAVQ
Procedure: (§1) The assay described measures the phosphorylation of the PDK1 consensus phosphorylation site PDK-tide peptide ([…]; cat # 14452, lot 23876U) by recombinant PDK-1 (UBI) at Km for ATP and PDKtide saturation using phosphocellulose membrane filter plates. Phosphorylation of the p70S6 kinase substrate by recombinant p70S6 kinase is also measured similarly.

[1] = system: GSK3β ser9 phosphorylation; experiment: GSK3β ser9 phosphorylation in xenograft tissues of treated mice; assay type: in vivo; conditions: human tumor xenograft-bearing mice
Procedure: (§2) Protein lysates were prepared by incubation in RIPA Buffer (50 mM Tris-HCl, 150 mM NaCl, 1 mM EDTA, 1% NP40, 0.25% Sodium deoxycholate, 1 mM sodium fluoride, 1 mM sodium orthovanadate and Complete™ protease inhibitors (Roche Cat# 10019600) for one hour with rotation. The lysate was then centrifuged (10 minutes@ 10,000 rpm), supernatant harvested and protein concentrations were determined using the Bio-Rad DC Protein Assay (cat# 500-0122). Proteins were separated by SDS-PAGE using 4-20% tris-glycine gels (Invitrogen, cat# EC6028) and transferred to Hyper™-bond PVDF membrane (Amersham, cart# rpn303F). All primary antibodies were incubated overnight at 4° C. in 5% milk/1×PBS (Gibco, cat# 70011-044) solution. Horseradish peroxidase (HRP) linked secondary antibodies (Santa Cruz, cat# sc-2055, sc-2054) were incubated for a minimum of two hours prior to detection. Specific signal was determined by the Lumi-Imager™ and Lumi-Analyst software to define changes in protein expression and phosphorylation. […]
Approximately 5×10^6 tumor cells are implanted subcutaneously into the flank of athymic nude mice (Harlan, Indianapolis, Ind.). […] Body weight and tumor size are monitored weekly or twice weekly.

ribosomal protein S6 = experiment: Phosphorylation of ribosomal protein S6 (western blot, AKT pathway readout); assay type: cell-based; conditions: readout of AKT pathway activity
Procedure: as §2

[2] = system: forkhead transcription factor AFX; experiment: Phosphorylation of AFX (western blot, AKT pathway readout); assay type: cell-based; conditions: readout of AKT pathway activity
Procedure: as §2

[3] = system: human cancer cell lines derived from prostate (both androgen-dependent and independent cell lines); experiment: Apoptosis assay (Cell Death Detection ELISA), prostate; assay type: cell-based
Description: (§3) Apoptosis assays were executed using the Cell Death Detection ELISAPIUS (Roche, 1774425) assay kit strictly following the enclosed protocol.

recombinant p70S6 kinase = recombinant p70S6 kinase (Homo sapiens, UniProt P23443); experiment: p70S6 kinase activity assay; assay type: biochemical; conditions: read-out: inhibits p70S6kinase, EC50
Sequence of recombinant p70S6 kinase (P23443 whole entry): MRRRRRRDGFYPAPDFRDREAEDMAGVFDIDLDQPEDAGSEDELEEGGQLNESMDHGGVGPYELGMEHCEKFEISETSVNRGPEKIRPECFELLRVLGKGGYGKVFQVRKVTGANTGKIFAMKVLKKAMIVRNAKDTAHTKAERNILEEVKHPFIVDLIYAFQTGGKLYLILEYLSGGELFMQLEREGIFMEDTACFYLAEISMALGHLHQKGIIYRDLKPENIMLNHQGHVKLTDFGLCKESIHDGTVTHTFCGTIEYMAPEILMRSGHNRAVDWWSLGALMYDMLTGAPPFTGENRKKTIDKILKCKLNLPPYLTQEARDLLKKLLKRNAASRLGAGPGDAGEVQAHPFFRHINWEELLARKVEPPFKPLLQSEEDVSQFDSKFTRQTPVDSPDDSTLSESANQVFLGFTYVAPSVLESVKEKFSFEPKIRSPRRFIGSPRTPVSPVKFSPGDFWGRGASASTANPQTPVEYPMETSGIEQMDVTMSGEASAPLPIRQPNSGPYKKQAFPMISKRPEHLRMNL
Procedure: as §1

4EBP1 = experiment: Phosphorylation of 4EBP1 (western blot, AKT pathway readout); assay type: cell-based; conditions: readout of AKT pathway activity
Procedure: as §2

[4] = system: HCT116 colon cancer xenografts; experiment: In vivo tumor inhibition, HCT116 xenografts; design: species or system athymic nude mice
Description: (§4) Approximately 5×10^6 tumor cells are implanted subcutaneously into the flank of athymic nude mice (Harlan, Indianapolis, Ind.). Treatment of tumors begins when the tumors reach 100 mm^3 and continues for 21 consecutive days twice per day PO. Body weight and tumor size are monitored weekly or twice weekly.

[5] = system: xenografts from the androgen-independent prostate carcinoma cell line PC3; experiment: In vivo tumor inhibition, PC3 xenografts; design: species or system athymic nude mice
Description: as §4

[6] = system: U87MG glioblastoma xenografts; experiment: In vivo tumor inhibition, U87MG xenografts; design: species or system athymic nude mice
Description: as §4

GSK3β = experiment: Phosphorylation of GSK3β (western blot, AKT pathway readout); assay type: cell-based; conditions: readout of AKT pathway activity
Procedure: as §2

[7] = system: human cancer cell lines derived from lung; experiment: Apoptosis assay (Cell Death Detection ELISA), lung; assay type: cell-based
Description: as §3

[8] = system: human cancer cell lines derived from colon; experiment: Apoptosis assay (Cell Death Detection ELISA), colon; assay type: cell-based
Procedure: Both HCT116 colon carcinoma (cat#CCL-247) and U87MG glioblastoma (cat#HTB-14) cell lines were obtained from the American Type Culture Collection (ATCC). The standard growth media differed for each cell line but all were grown in 10% heat-inactivated FBS (Invitrogen cat# 10082-147), 37° C., 5% CO2 atmosphere and in a humidified chamber. Cell passage was completed one to two times per week using 0.25% trypsin/1 mM EDTA (Invitrogen, cat# 25200-056) solution maintaining cells in log phase growth. U87MG cells were cultured in DMEM media (Invitrogen cat# 11965-092), 1 mM non-essential amino acids (NEAA), and 0.1 mM Sodium Pyruvate. HCT116 cells were grown in McCoy's 5A Modified media (Invitrogen, cat# 16600-082), 0.15% sodium bicarbonate, 0.1 mM HEPES, 25 mM D-glucose and 0.1 mM sodium Pyruvate.
as §3

[9] = system: human cancer cell lines from non-Hodgkin's lymphoma; experiment: Apoptosis assay (Cell Death Detection ELISA), non-Hodgkin's lymphoma; assay type: cell-based
Description: as §3

- pEC50 (recombinant PDK-1): 6.43
- pEC50 (recombinant p70S6 kinase): > 6.30
SMILES: Cn1cc(C2=C(c3cn(C4CCNCC4)c4ccccc34)C(=O)NC2=O)c2ccccc21 [Compound 1]
- GSK3β ser9 phosphorylation in xenograft tissues ([1]; including an androgen-independent prostate carcinoma cell line): suppresses GSK3β ser9 phosphorylation
- duration of suppression of GSK3β ser9 phosphorylation post dosing ([1]; post dosing): up to 8 hours
- phosphorylation of ribosomal protein S6 (ribosomal protein S6): suppresses phosphorylation
- phosphorylation of the forkhead transcription factor AFX [2]: suppresses phosphorylation
- induction of apoptosis [3]: induces apoptosis
- phosphorylation of 4EBP1 (4EBP1): suppresses phosphorylation
- anti-tumor efficacy [4]: has been demonstrated
- anti-tumor efficacy [5]: has been demonstrated
- anti-tumor efficacy [6]: has been demonstrated
- phosphorylation of GSK3β (GSK3β): suppresses phosphorylation
- induction of apoptosis [7]: induces apoptosis
- induction of apoptosis [8]: induces apoptosis
- induction of apoptosis [9]: induces apoptosis
